{"source": "paper PMC6499206", "about": "“Quantification of Volatile Metabolites Derived From Garlic (Allium sativum) in Human Urine” (Frontiers in Nutrition, 2019)", "experiment": "Quantification of garlic-derived metabolites in human urine after ingestion of 3 g raw garlic (SIDA, SAFE, HRGC-MS / HRGC-GC-MS)", "type": "in vivo", "conditions": "3 g raw garlic", "description": "Human urine samples were obtained from 18 volunteers (age 22–38 years, mean 27 years; 11 females, 7 males); thereby, one volunteer conducted the whole experimental series twice. At the time of examination, volunteers reported no known illness that might have potentially influenced the metabolism or the excretion of urine. The test persons were instructed to avoid foods that were rich in sulfur-containing substances at the testing day as well as 2 days preceding the testing day, namely garlic, onion, wild garlic, chives, cabbage, and leek, and were only allowed to consume the garlic sample provided in the course of the experiments. Additionally, subjects were asked to keep records of the food (including food supplements) and beverages they consumed during these 3 testing days. Generally, the overall panelists' requirements were in accordance with our previous studies ([5], [16]).\nOn the sampling day, the outer garlic cloves of a whole garlic bulb were peeled and cut into ~3 mm cubes by using a garlic cutter (Genius GmbH, Limburg/Lahn, Germany). Subsequently these cubes were thoroughly mixed and aliquoted into 3 g portions. Three to four test persons conducted the experiment at the same day. Each test person was asked to ingest a garlic portion of 3 g. In total, eight consecutive urine samples were provided by each test person, comprising one whole urine set. The samples were collected in sterile brown glass bottles, with sampling times as follows: one sample was provided directly prior to garlic consumption. The series of the second to eighth sample was then obtained at about 0.5, 1, 2, 4, 6, 8, and 24 h after garlic consumption, respectively. Between the first urine sample (prior to garlic consumption) and the seventh urine sample (8 h after garlic consumption) test persons only spent urine at the specific time points mentioned before. Another sample was provided at the next morning (24 h after garlic consumption). Between the samples provided 8 and 24 h after garlic consumption no urine was collected. All samples were immediately placed into a −80°C freezer and were kept frozen until further analysis.\nThe samples of each set were termed according to their sampling time. The following list provides the time intervals that are related to the respective sample name: • - pre: before garlic consumption • - 0.5 h post: 0.4–0.8 h after garlic consumption • - 1 h post: 0.9–1.3 h after garlic consumption • - 2 h post: 1.8 h−2.2 h after garlic consumption • - 4 h post: 3.8–4.4 h after garlic consumption • - 6 h post: 5.8–6.4 h after garlic consumption • - 8 h post: 7.8–8.4 h after garlic consumption • - 24 h post: 23.8–25.6 h after garlic consumption\nA creatinine kit (Labor+Technik Eberhard Lehmann GmbH, Berlin, Germany) was used to determine the creatinine content in each urine sample. The determination principle of this kit is based on the reaction of creatinine with picric acid under basic conditions (Jaffé reaction). The formed complex was detected photometrically at a wavelength of 492 nm.\nFor quantification purposes, the deuterated standards ^2H3-AMS, ^2H3-AMSO, and ^2H3-AMSO2 were added to the sample and stirred for 10 min. Subsequently, DCM was added in a ratio of 1:2 (DCM/human urine; v/v) and this solution was stirred for further 30 min at room temperature. To isolate the volatile fraction from the urine samples we then applied SAFE-distillation ([17]), thereby distilling the respective samples at 50°C. After completion of the distillation process, 10 mL of DCM were applied in each case to rinse the SAFE apparatus and to ensure complete transition of the volatile compounds. This process was repeated with another 10 mL of DCM. After thawing, the obtained aqueous distillate phase was extracted three times with 25 mL DCM. The organic phases were combined, dried over anhydrous Na2SO4 and concentrated to a total volume of 100 μL by means of Vigreux distillation and subsequent micro-distillation at 50°C. […]"}
{"smiles": "C=CCS(C)(=O)=O", "note": "[AMSO2, allyl methyl sulfone]", "values": [{"measurement": "metabolite concentration in urine", "setting": "U VII, 1 h post (1.08 h)", "value": 125.9, "unit": "µg/kg"}, {"measurement": "metabolite concentration in urine, creatinine-normalized", "setting": "U VII, 1 h post (1.08 h)", "value": 78.0, "unit": "µg/mmol creatinine"}, {"measurement": "metabolite concentration in urine", "setting": "U VII, 2 h post (2.00 h)", "value": 139.9, "unit": "µg/kg"}, {"measurement": "metabolite concentration in urine, creatinine-normalized", "setting": "U VII, 2 h post (2.00 h)", "value": 143.4, "unit": "µg/mmol creatinine"}, {"measurement": "metabolite concentration in urine", "setting": "U VII, 4 h post (4.00 h)", "value": 170.5, "unit": "µg/kg"}, {"measurement": "metabolite concentration in urine, creatinine-normalized", "setting": "U VII, 4 h post (4.00 h)", "value": 105.6, "unit": "µg/mmol creatinine"}, {"measurement": "metabolite concentration in urine", "setting": "U VII, 6 h post (6.00 h)", "value": 203.6, "unit": "µg/kg"}, {"measurement": "metabolite concentration in urine, creatinine-normalized", "setting": "U VII, 6 h post (6.00 h)", "value": 65.5, "unit": "µg/mmol creatinine"}, {"measurement": "metabolite concentration in urine", "setting": "U VII, 8 h post (8.00 h)", "value": 147.2, "unit": "µg/kg"}, {"measurement": "metabolite concentration in urine, creatinine-normalized", "setting": "U VII, 8 h post (8.00 h)", "value": 75.5, "unit": "µg/mmol creatinine"}, {"measurement": "metabolite concentration in urine", "setting": "U VII, 24 h post (24.00 h)", "value": 15.7, "unit": "µg/kg"}, {"measurement": "metabolite concentration in urine, creatinine-normalized", "setting": "U VII, 24 h post (24.00 h)", "value": 4.2, "unit": "µg/mmol creatinine"}, {"measurement": "metabolite concentration in urine", "setting": "U VII, pre (-0.25 h)", "value": 7.0, "unit": "µg/kg"}, {"measurement": "metabolite concentration in urine, creatinine-normalized", "setting": "U VII, pre (-0.25 h)", "value": 2.0, "unit": "µg/mmol creatinine"}, {"measurement": "metabolite concentration in urine", "setting": "U VIII, 0.5 h post (0.52 h)", "value": 112.9, "unit": "µg/kg"}, {"measurement": "metabolite concentration in urine, creatinine-normalized", "setting": "U VIII, 0.5 h post (0.52 h)", "value": 143.6, "unit": "µg/mmol creatinine"}, {"measurement": "metabolite concentration in urine", "setting": "U VIII, 1 h post (1.08 h)", "value": 256.0, "unit": "µg/kg"}, {"measurement": "metabolite concentration in urine, creatinine-normalized", "setting": "U VIII, 1 h post (1.08 h)", "value": 154.0, "unit": "µg/mmol creatinine"}, {"measurement": "metabolite concentration in urine", "setting": "U VIII, 2 h post (2.08 h)", "value": 301.1, "unit": "µg/kg"}, {"measurement": "metabolite concentration in urine, creatinine-normalized", "setting": "U VIII, 2 h post (2.08 h)", "value": 284.7, "unit": "µg/mmol creatinine"}, {"measurement": "metabolite concentration in urine", "setting": "U VIII, 4 h post (4.07 h)", "value": 322.0, "unit": "µg/kg"}, {"measurement": "metabolite concentration in urine, creatinine-normalized", "setting": "U VIII, 4 h post (4.07 h)", "value": 152.2, "unit": "µg/mmol creatinine"}, {"measurement": "metabolite concentration in urine", "setting": "U VIII, 6 h post (6.08 h)", "value": 348.3, "unit": "µg/kg"}, {"measurement": "metabolite concentration in urine, creatinine-normalized", "setting": "U VIII, 6 h post (6.08 h)", "value": 92.2, "unit": "µg/mmol creatinine"}, {"measurement": "metabolite concentration in urine", "setting": "U VIII, 8 h post (7.90 h)", "value": 255.0, "unit": "µg/kg"}, {"measurement": "metabolite concentration in urine, creatinine-normalized", "setting": "U VIII, 8 h post (7.90 h)", "value": 92.7, "unit": "µg/mmol creatinine"}, {"measurement": "metabolite concentration in urine", "setting": "U VIII, 24 h post (23.83 h)", "value": 48.3, "unit": "µg/kg"}, {"measurement": "metabolite concentration in urine, creatinine-normalized", "setting": "U VIII, 24 h post (23.83 h)", "value": 18.1, "unit": "µg/mmol creatinine"}, {"measurement": "metabolite concentration in urine", "setting": "U VIII, pre (-0.33 h)", "value": 97.6, "unit": "µg/kg"}, {"measurement": "metabolite concentration in urine, creatinine-normalized", "setting": "U VIII, pre (-0.33 h)", "value": 21.82, "unit": "µg/mmol creatinine"}, {"measurement": "metabolite concentration in urine", "setting": "U X, 0.5 h post (0.53 h)", "value": 15.5, "unit": "µg/kg"}, {"measurement": "metabolite concentration in urine, creatinine-normalized", "setting": "U X, 0.5 h post (0.53 h)", "value": 8.0, "unit": "µg/mmol creatinine"}, {"measurement": "metabolite concentration in urine", "setting": "U X, 1 h post (1.03 h)", "value": 27.7, "unit": "µg/kg"}, {"measurement": "metabolite concentration in urine, creatinine-normalized", "setting": "U X, 1 h post (1.03 h)", "value": 35.2, "unit": "µg/mmol creatinine"}, {"measurement": "metabolite concentration in urine", "setting": "U X, 2 h post (2.03 h)", "value": 48.6, "unit": "µg/kg"}, {"measurement": "metabolite concentration in urine, creatinine-normalized", "setting": "U X, 2 h post (2.03 h)", "value": 72.3, "unit": "µg/mmol creatinine"}, {"measurement": "metabolite concentration in urine", "setting": "U X, 4 h post (3.85 h)", "value": 79.1, "unit": "µg/kg"}, {"measurement": "metabolite concentration in urine, creatinine-normalized", "setting": "U X, 4 h post (3.85 h)", "value": 60.1, "unit": "µg/mmol creatinine"}, {"measurement": "metabolite concentration in urine", "setting": "U X, 6 h post (5.80 h)", "value": 89.3, "unit": "µg/kg"}, {"measurement": "metabolite concentration in urine, creatinine-normalized", "setting": "U X, 6 h post (5.80 h)", "value": 37.7, "unit": "µg/mmol creatinine"}, {"measurement": "metabolite concentration in urine", "setting": "U X, 8 h post (7.75 h)", "value": 85.2, "unit": "µg/kg"}, {"measurement": "metabolite concentration in urine, creatinine-normalized", "setting": "U X, 8 h post (7.75 h)", "value": 36.5, "unit": "µg/mmol creatinine"}, {"measurement": "metabolite concentration in urine", "setting": "U X, 24 h post (23.97 h)", "value": 53.0, "unit": "µg/kg"}, {"measurement": "metabolite concentration in urine, creatinine-normalized", "setting": "U X, 24 h post (23.97 h)", "value": 4.9, "unit": "µg/mmol creatinine"}, {"measurement": "metabolite concentration in urine", "setting": "U X, pre (-0.07 h)", "value": "< LOD^3"}, {"measurement": "metabolite concentration in urine, creatinine-normalized", "setting": "U X, pre (-0.07 h)", "value": "< LOD^3"}, {"measurement": "metabolite concentration in urine", "setting": "U XI, 0.5 h post (0.50 h)", "value": 27.5, "unit": "µg/kg"}, {"measurement": "metabolite concentration in urine, creatinine-normalized", "setting": "U XI, 0.5 h post (0.50 h)", "value": 33.4, "unit": "µg/mmol creatinine"}, {"measurement": "metabolite concentration in urine", "setting": "U XI, 1 h post (1.02 h)", "value": 65.7, "unit": "µg/kg"}, {"measurement": "metabolite concentration in urine, creatinine-normalized", "setting": "U XI, 1 h post (1.02 h)", "value": 82.6, "unit": "µg/mmol creatinine"}, {"measurement": "metabolite concentration in urine", "setting": "U XI, 2 h post (2.00 h)", "value": 93.5, "unit": "µg/kg"}, {"measurement": "metabolite concentration in urine, creatinine-normalized", "setting": "U XI, 2 h post (2.00 h)", "value": 122.1, "unit": "µg/mmol creatinine"}, {"measurement": "metabolite concentration in urine", "setting": "U XI, pre (-0.08 h)", "value": 9.0, "unit": "µg/kg"}, {"measurement": "metabolite concentration in urine, creatinine-normalized", "setting": "U XI, pre (-0.08 h)", "value": 2.6, "unit": "µg/mmol creatinine"}, {"measurement": "metabolite concentration in urine", "setting": "U XII, 0.5 h post (0.48 h)", "value": 17.3, "unit": "µg/kg"}, {"measurement": "metabolite concentration in urine, creatinine-normalized", "setting": "U XII, 0.5 h post (0.48 h)", "value": 2.3, "unit": "µg/mmol creatinine"}, {"measurement": "metabolite concentration in urine", "setting": "U XII, 1 h post (1.03 h)", "value": 33.1, "unit": "µg/kg"}, {"measurement": "metabolite concentration in urine, creatinine-normalized", "setting": "U XII, 1 h post (1.03 h)", "value": 33.6, "unit": "µg/mmol creatinine"}]}
